Laboratory results from PubChem BioAssay (NCI).
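48-hour exposure; five concentrations; linearly interpolated endpoints. GI50 is the concentration that inhibits growth by half. At the TGI there is no net growth.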

Assays:
Experiment in all cases: NCI-60 cell line screen, 48 h
OVCAR-8 ovarian = tested on: OVCAR-8 ovarian
HOP-92 NSCLC = tested on: HOP-92 NSCLC
KM12 colon = tested on: KM12 colon
A498 renal = tested on: A498 renal
RXF 393 renal = tested on: RXF 393 renal
U251 CNS = tested on: U251 CNS
A549 NSCLC = tested on: A549 NSCLC
SNB-19 CNS = tested on: SNB-19 CNS
NCI/ADR-RES ovarian = tested on: NCI/ADR-RES ovarian
DU-145 prostate = tested on: DU-145 prostate

| SMILES | TGI (OVCAR-8 ovarian) [µM] | TGI (HOP-92 NSCLC) [µM] | TGI (KM12 colon) [µM] | TGI (A498 renal) [µM] | TGI (RXF 393 renal) [µM] | TGI (U251 CNS) [µM] | TGI (A549 NSCLC) [µM] | TGI (SNB-19 CNS) [µM] | GI50 (OVCAR-8 ovarian) [µM] | GI50 (HOP-92 NSCLC) [µM] | GI50 (KM12 colon) [µM] | GI50 (A498 renal) [µM] | GI50 (RXF 393 renal) [µM] | GI50 (U251 CNS) [µM] | GI50 (NCI/ADR-RES ovarian) [µM] | TGI (NCI/ADR-RES ovarian) [µM] | GI50 (A549 NSCLC) [µM] | GI50 (SNB-19 CNS) [µM] | GI50 (DU-145 prostate) [µM] | TGI (DU-145 prostate) [µM] |
| --- | --- | --- | --- | --- | --- | --- | --- | --- | --- | --- | --- | --- | --- | --- | --- | --- | --- | --- | --- | --- |
| CCCCCCCC(=O)NCC(O)CNC(=O)CCCCCCC | > 100 | > 100 | > 100 | > 100 | > 100 | > 100 | > 100 | > 100 | – | – | – | – | – | – | – | – | – | – | – | – |
| Nc1ncnc2c1ncn2Cc1ccc(C23CC4CC(CC(C4)C2)C3)c(OCc2cc(F)c(F)cc2F)c1 | > 100 | 32.7 | > 100 | > 100 | 8.36 | 42.8 | 14.7 | > 100 | 9.66 | 4.63 | 3.92 | > 100 | 2.02 | 5.59 | 6.49 | > 100 | 3.61 | 29.5 | 15.3 | > 100 |
| Cc1ccccc1C1=[N+]([O-])c2ccccc2C1=O | 30.3 | 62.5 | 25.9 | > 100 | 37.3 | 31 | – | > 100 | – | – | – | – | – | – | – | – | – | – | – | – |
| CC(=O)CCc1ccc(OC2OC(COC(=O)c3cc(O)c(O)c(O)c3)C(O)C(O)C2OC(=O)/C=C/c2ccccc2)cc1 (centres undefined) | 55 | > 100 | 43.5 | 48 | 47.2 | 30.1 | 59.7 | 49.7 | 21.2 | 30.4 | 21 | 23.2 | 19 | 11.9 | > 100 | > 100 | 25.8 | 18.4 | 23.5 | 42.8 |
| CCOC(=O)c1c(-c2ccccc2)oc(-c2ccccc2)c1C(=O)OCC | > 100 | > 100 | > 100 | > 100 | > 100 | > 100 | > 100 | > 100 | – | – | – | – | – | – | – | – | – | – | – | – |
| CC(=O)Oc1cc(C)c2c(c1OC(C)=O)CC1(O2)[C@@H](C)CCC2[C@@]3(C)CC[C@H](OC(C)=O)C(C)(C)C3CC[C@]21C (some centres undefined) | 13.7 | 8.01 | 18.2 | 21.4 | 2.84 | 14.4 | 33.2 | 29.8 | – | – | – | – | – | – | – | – | – | – | – | – |
| Cn1ccnc1C(=O)/C=C/c1ccc(C(=O)Nc2ccc(S(F)(F)(F)(F)F)cc2)cc1 | > 14.3 | > 14.3 | > 14.3 | – | 13.9 | > 14.3 | > 14.3 | > 14.3 | 2.03 | 3.03 | 2.77 | – | 2.65 | 0.506 | 1.52 | > 14.3 | 3.81 | 2.34 | 2.41 | > 14.3 |
| O=C(O)C1=CCCc2ccc3ccccc3c21 | > 100 | > 100 | > 100 | > 100 | > 100 | > 100 | > 100 | > 100 | – | – | – | – | – | – | – | – | – | – | – | – |
| CCOC(=O)/C(=N\OC)C(O)C(F)(F)F (centres undefined) | > 100 | – | > 100 | > 100 | > 100 | > 100 | > 100 | > 100 | – | – | – | – | – | – | – | > 100 | – | – | – | > 100 |
| CSc1cccc(-n2c3nc(=O)n(C)c(=O)c-3nc3ccccc32)c1 | 57.6 | 25.3 | 43.2 | 25.3 | – | 23.3 | 16.2 | 65.9 | – | – | – | – | – | – | – | – | – | – | – | – |
| COc1ccc(-n2cc(-c3cc(OC)c(OC)c(OC)c3)nc2SCc2ccccc2)cc1 | – | > 100 | > 100 | > 100 | – | > 100 | > 100 | > 100 | – | 28.9 | 60 | > 100 | – | 43.8 | 26.8 | > 100 | 79.6 | > 100 | > 100 | > 100 |
| CC(=O)N1c2ccccc2C2=CC3C4C(=O)N(c5ccccc5)C(=O)C4C21C1C(=O)N(c2ccccc2)C(=O)C31 (centres undefined) | > 100 | > 100 | > 100 | > 100 | – | > 100 | > 100 | > 100 | – | – | – | – | – | – | – | – | – | – | – | – |
| N#C/C(=N\Nc1ccc(Cl)cc1)C(=O)Nc1cc(-c2ccccc2)nn1-c1ccccc1 | > 100 | 4.49 | > 100 | – | 6.32 | > 100 | > 100 | > 100 | 2.96 | 1.07 | 2.92 | – | 2.06 | 3.08 | 3.09 | > 100 | 3.2 | 3.17 | 3.9 | > 100 |
| COC(=O)C1=C(C)NC(C)=C(C(=O)OC)C1/C=C(\Cl)c1ccc(Cl)c(Cl)c1 | > 100 | – | 31.5 | 24.1 | 27.2 | 27.1 | 24.4 | 41.6 | 36.1 | – | 15.4 | 11.4 | 13.4 | 14.1 | 16.4 | 30.8 | 11.9 | 18.8 | 16.5 | 32 |
| CCN(CC)CCCn1cnc2ncccc2c1=O | > 100 | > 100 | > 100 | – | > 100 | > 100 | > 100 | > 100 | – | – | – | – | – | – | – | – | – | – | – | – |
| O=C(Nc1ccccc1)c1nn(-c2cc(S(=O)(=O)O)c([N+](=O)[O-])cc2Cl)[n+](-c2cc(S(=O)(=O)[O-])c([N+](=O)[O-])cc2Cl)n1 | – | – | > 100 | – | > 100 | > 100 | > 100 | > 100 | – | – | – | – | – | – | – | > 100 | – | – | – | > 100 |
| c1ccc2c(c1)sc1c3cnccc3ccc21 | – | – | > 100 | > 100 | – | > 100 | > 100 | > 100 | – | – | – | – | – | – | – | > 100 | – | – | – | > 100 |
| COc1cc(-c2nc3sccn3c2-c2ccnc(NCCNS(=O)(=O)c3ccc(Cl)cc3)n2)ccc1F | > 100 | – | > 100 | – | > 100 | > 100 | > 100 | > 100 | 2.71 | – | 4.26 | – | 1.64 | 7.67 | 2.89 | > 100 | 3.86 | 74 | 3.62 | > 100 |
